Measured values: patent publication US6921749B1, “Polypeptides derived from endostatin exhibiting antiangiogenic activity” (Universita' Degli Studi di Milano, priority 1999, dated 2005)
Where no end group is shown, it is not given here. The star is where a group is joined. tBu = CC(C)(C)*

Assays:
[1] = system: coronary venular endothelial cells (CVEC); experiment: Proliferation studies (total cell number), postcapillary venule endothelial cells; assay type: cell-based, bovine; details: 10 to 1000 ng/ml, 48 hr, FGF-2 and VEGF 20 ng/ml each
Source text: The coronary venular endothelial cells (CVEC) were isolated and cultured as previously described (8).
Cell proliferation was quantified by total cell number as reported (12,13).
Cell proliferation was quantified by counting the total number of cells after 48 hr treatment. Endothelial cells isolated from postcapillary venules were used to test the effect on angiogenesis. […] The effect was more pronounced on FGF-2-induced growth. […] Similar effects were obtained on all the endothelial cell lines tested (FIG. 1E).
C-E: Effect of endostatin fragments on endothelial cell proliferation. Endothelial cell (C,D: CVEC; E, MAE) proliferation was stimulated with FGF-2 and VEGF (20 ng/ml each). Data are expressed as number of cells counted/well after 48 hr incubation with test substances. Numbers are means±SEM of 6 and 2 experiments run in triplicate for CVEC and ME, respectively.

mouse aorta rings = experiment: Vascular sprouting in vitro in three-dimensional fibrin gels; assay type: cell-based; details: vascular rings in 3D fibrin gels, day 3
Description: Vascular sprouting from mouse aorta rings was assessed in three-dimensional fibrin gels preparations according to the method described by Brown et al (15), with minor modifications. Quantitative evaluation of newly formed structures was carried out at day 3. The area covered by vascular sprouts was quantified in microscopic units (0.21 mm^2).
The formation of capillary-like structures in vascular rings cultured in 3D fibrin gels was used to test angiogenesis in vitro. Fragment I and IV inhibited the spontaneous growth of capillaries and the one induced by FGF-2 and VEGF. As an example the effect of 100 ng/ml concentration of either fragment is shown (FIG. 3A).
FIG. 3: Effect of endostatin fragments on angiogenesis in vitro (A) and in vivo (B). A. In vitro vessel sprouting from rings of mouse aortas was induced by FGF-2 (10 ng/ml). Fragments I and IV were used at […]. Data are reported as mean area occupied by tubules-like structures after 3 days from stimulation. Numbers are means of one representative experiment out of two run in triplicate.

endothelial cells = experiment: In vitro inhibition test on endothelial cells proliferation and migration; assay type: cell-based
Source text: These polypeptides have remarkable antiangiogenic activity in the in vitro inhibition test on endothelial cells proliferation and migration (16).

[2] = system: microvascular endothelial cells; details: E. coli expressed protein; cited from earlier work

Substance	cell growth induced by FGF-2 and VEGF [1]	growth of capillaries induced by FGF-2 and VEGF (mouse aorta rings)	spontaneous growth of capillaries (mouse aorta rings)	potency compared with endostatin (endothelial cells)	FGF-2 and VEGF induced proliferation and migration [2]
Cys-Glu-Thr-Trp-Arg-Thr-Glu-Thr-Thr-Gly-Ala-Thr-Gly-Gln-Ala-Ser-Ser-Leu-Leu-Ser-Gly-Arg-Leu-Leu-Glu-Gln-Lys-Ala-Ala-Ser-Cys-His-Asn-Ser-Tyr-Ile-Val-Leu-Cys(tBu)-Ile-Glu-Asn-Ser-Phe-Met-Thr-Ser-Phe-Ser-Lys (CETWRTETTGATGQASSLLSGRLLEQKAASCHNSYIVLC(tBu)IENSFMTSFSK; cysteine pairing not given here) [Fragment IV]	most potent	inhibited	inhibited		
His-Thr-His-Gln-Asp-Phe-Gln-Pro-Val-Leu-His-Leu-Val-Ala-Leu-Asn-Thr-Pro-Leu-Ser-Gly-Gly-Met-Arg-Gly-Ile-Arg-Gly-Ala-Asp-Phe-Gln-Cys(tBu)-Phe-Gln-Gln-Ala-Arg-Ala (HTHQDFQPVLHLVALNTPLSGGMRGIRGADFQC(tBu)FQQARA) [Fragment I]		inhibited	inhibited	equipotential to endostatin	
endostatin					able to block
